Test results published in ChEMBL document CHEMBL4402592, “Targeting Endoplasmic Reticulum α-Glucosidase I with a Single-Dose Iminosugar Treatment Protects against Lethal Influenza and Dengue Virus Infections” (J Med Chem, 2020).
Calls of active or inactive are those of the source. The rule behind the calls is not given here.

Tests used:
Influenza A virus [1] = experiment: Antiviral activity against Influenza A virus (A/Texas/36/1991(H1N1)) infected in BALB/c mouse assessed as median death time at 500 mg/kg, po administered via gavage as single dose at 24 hrs post infection (reference value: 8.5 days); assay type: functional
dengue virus type 2 [2] = experiment: Antiviral activity against Dengue virus 2 S221 infected in DENV antibody dependent enhancement AG129 mouse model assessed as animal survival at 375 mg/kg, po administered via gavage as two doses at 24 and 40 hrs post infection (reference value: 4%); assay type: functional
Mus musculus [3] = experiment: In vivo inhibition of ERGlu1 in BALB/c mouse assessed as increase in tri-glucosylated FOS level in spleen at >250 mg/kg, po administered via gavage as single dose at 8 hrs post-infection and measured at 8 hrs post dose by NP-HPLC analysis; assay type: functional, organism-based
Influenza A virus [4] = experiment: Antiviral activity against Influenza A virus (A/Texas/36/1991(H1N1)) infected in BALB/c mouse assessed as median death time at 250 mg/kg, po administered via gavage as two doses at 8 hrs and 32 hrs post infection (reference value: 9 days); assay type: functional
Influenza A virus [5] = experiment: Antiviral activity against Influenza A virus (A/Texas/36/1991(H1N1)) infected in BALB/c mouse assessed as median death time at 100 mg/kg, po administered via gavage starting at 8 hrs post-infection and continuing TID for 5 days; assay type: functional
Influenza A virus [6] = experiment: Antiviral activity against Influenza A virus (A/Texas/36/1991(H1N1)) infected in BALB/c mouse assessed as increase in animal survival rate at >250 mg/kg, po administered via gavage as single dose at 8 hrs post-infection; assay type: functional, organism-based
dengue virus type 2 [7] = experiment: Antiviral activity against Dengue virus 2 S221 infected in DENV antibody dependent enhancement AG129 mouse model assessed as animal survival at 750 mg/kg, po administered via gavage as two doses at 16 and 32 hrs post infection (reference value: 4%); assay type: functional
Influenza A virus [8] = experiment: Antiviral activity against Influenza A virus (A/Texas/36/1991(H1N1)) infected in BALB/c mouse assessed as animal survival at 250 mg/kg, po administered via gavage as single dose at 8 hrs post infection (reference value: 0%); assay type: functional
Influenza A virus [9] = experiment: Antiviral activity against Influenza A virus (A/Texas/36/1991(H1N1)) infected in BALB/c mouse assessed as increase in animal survival rate at 100 mg/kg, po administered via gavage starting at 8 hrs post-infection and continuing TID for 5 days; assay type: functional, organism-based
dengue virus type 2 [10] = experiment: Antiviral activity against Dengue virus 2 S221 infected in DENV antibody dependent enhancement AG129 mouse model assessed as animal survival at 750 mg/kg, po administered via gavage as two doses at 24 and 40 hrs post infection (reference value: 4%); assay type: functional
Influenza A virus [11] = experiment: Antiviral activity against Influenza A virus (A/Texas/36/1991(H1N1)) infected in BALB/c mouse assessed as animal survival at 500 mg/kg, po administered via gavage as single dose at 16 hrs post infection (reference value: 0%); assay type: functional
dengue virus type 2 [12] = experiment: Antiviral activity against Dengue virus 2 S221 infected in DENV antibody dependent enhancement AG129 mouse model assessed as animal survival at 750 mg/kg, po administered via gavage as two doses at 48 and 64 hrs post infection (reference value: 4%); assay type: functional
dengue virus type 2 [13] = experiment: Antiviral activity against Dengue virus 2 S221 infected in DENV antibody dependent enhancement AG129 mouse model assessed as animal survival at 250 mg/kg, po administered via gavage as two doses at 36 and 52 hrs post infection (reference value: 4%); assay type: functional
[14] = Half life in BALB/c mouse at 5 mg/kg, iv or 200 mg/kg, po measured upto 48 hrs by LC-MS/MS analysis; assay type: ADME, organism-based; settings: in vivo
Influenza A virus [15] = experiment: Antiviral activity against Influenza A virus (A/Texas/36/1991(H1N1)) infected in BALB/c mouse assessed as animal survival at 750 mg/kg, po administered via gavage as three doses at 8, 32 and 56 hrs post infection (reference value: 0%); assay type: functional
Influenza A virus [16] = experiment: Antiviral activity against Influenza A virus (A/Texas/36/1991(H1N1)) infected in BALB/c mouse assessed as median death time at 250 mg/kg, po administered via gavage as three dosed at 8, 32 and 56 hrs post infection (reference value: 8 days); assay type: functional
dengue virus type 2 [17] = experiment: (§1) Antiviral activity against Dengue virus 2 S221 infected in DENV antibody dependent enhancement AG129 mouse model assessed as reduction in IL-12/IL-23p40 level at 750 mg/kg, po administered via gavage as single dose at 36 hrs post infection measured at 72 hrs post-infection by electrochemiluminescence based method; assay type: functional, organism-based
Mus musculus [18] = experiment: In vivo inhibition of ERGlu2 in BALB/c mouse assessed as increase in mono-glucosylated FOS level in lung at 20 mg/kg, po administered via gavage starting at 8 hrs post-infection and continuing tid for 5 days and measured at 8 hrs post-final dose by NP-HPLC analysis; assay type: functional, organism-based
Cynomolgus monkey = experiment: In vivo inhibition of ERGlu2 in cynomolgus monkey serum assessed as increase in mono-glucosylated FOS level in serum at 26 to 258 mg/kg, po administered via gavage as single dose and measured up to 72 hrs post-dose by NP-HPLC analysis; assay type: functional, organism-based; settings: Macaca fascicularis
Influenza A virus [19] = experiment: Antiviral activity against Influenza A virus (A/Texas/36/1991(H1N1)) infected in BALB/c mouse assessed as median death time at 500 mg/kg, po administered via gavage as two doses at 8 hrs and 32 hrs post infection (reference value: 9 days); assay type: functional
dengue virus type 2 [20] = experiment: as §1, with “TNF-lapha” for “IL-12/IL-23p40”, “two doses” for “single dose”, “36 hrs and 52” for “36”, “52” for “72”; assay type: functional, organism-based
dengue virus type 2 [21] = experiment: Antiviral activity against Dengue virus 2 S221 infected in DENV antibody dependent enhancement AG129 mouse model assessed as log10 reduction in viremia by measuring foci of BHK21 cells containing DENV E at 750 mg/kg, po administered via gavage as single dose at 36 hrs post infection measured after titration of compound treated infected animal serum with BHK21 cells by TrueBlue staining based focus forming assay; assay type: functional
Influenza A virus [22] = experiment: Antiviral activity against Influenza A virus (A/Texas/36/1991(H1N1)) infected in BALB/c mouse assessed as animal survival at 250 mg/kg, po administered via gavage as three doses at 8, 32 and 56 hrs post infection (reference value: 0%); assay type: functional
dengue virus type 2 [23] = experiment: Antiviral activity against Dengue virus 2 S221 infected in DENV antibody dependent enhancement AG129 mouse model assessed as animal survival at 375 mg/kg, po administered via gavage as two doses at 16 and 32 hrs post infection (reference value: 4%); assay type: functional
dengue virus type 2 [24] = experiment: Antiviral activity against Dengue virus 2 S221 infected in DENV antibody dependent enhancement AG129 mouse model assessed as animal survival at 750 mg/kg, po administered via gavage as two doses at 36 and 52 hrs post infection (reference value: 4%); assay type: functional
dengue virus type 2 [25] = experiment: as §1, with “IFN-gamma” for “IL-12/IL-23p40”, “60” for “72”; assay type: functional, organism-based
Mus musculus [26] = experiment: In vivo inhibition of ERGlu1 in BALB/c mouse assessed as increase in mono-glucosylated FOS level in lung at 100 to 1000 mg/kg, po administered via gavage at 8 hrs post-infection and measured at 8 hrs post-dose by NP-HPLC analysis; assay type: functional, organism-based

With `COCCCCCCCCCN1C[C@H](O)[C@@H](O)[C@H](O)[C@H]1CO.Cl` the Time (Influenza A virus [1]) was 11 days, the survival at 375 mg/kg (dengue virus type 2 [2]) was 100% and the inhibition (Mus musculus [3]) was “Active”. For the same molecule, the Time (Influenza A virus [4]) was over 14 days, the Time (Influenza A virus [5]) was over 14 days and the Activity (Influenza A virus [6]) was “Active”. The survival at 750 mg/kg (dengue virus type 2 [7]) was 100%, the survival at 250 mg/kg (Influenza A virus [8]) was 30% and the Activity (Influenza A virus [9]) was “Active”. It also gave a survival at 750 mg/kg (dengue virus type 2 [10]) of 89%, a survival at 500 mg/kg (Influenza A virus [11]) of 40% and a survival at 750 mg/kg (dengue virus type 2 [12]) of 100%. For the same molecule, the survival at 250 mg/kg (dengue virus type 2 [13]) was 100%, the half-life [14] was 5 h and the survival at 750 mg/kg (Influenza A virus [15]) was 100%. The Time (Influenza A virus [16]) was 9.5 days, the Activity (dengue virus type 2 [17]) was “Active” and the inhibition (Mus musculus [18]) was “Active”. The inhibition (Cynomolgus monkey) was “Active”, the Time (Influenza A virus [19]) was over 14 days and the Activity (dengue virus type 2 [20]) was “Active”. For the same molecule, the “log(activity)” value (dengue virus type 2 [21]) was over 1, the survival at 250 mg/kg (Influenza A virus [22]) was 0% and the survival at 375 mg/kg (dengue virus type 2 [23]) was 100%. The survival at 750 mg/kg (dengue virus type 2 [24]) was 100%, the Activity (dengue virus type 2 [25]) was “Active” and the inhibition (Mus musculus [26]) was “Active”.
